{
  "source": "paper PMC6151508",
  "about": "“Development of Novel Nrf2/ARE Inducers Bearing Pyrazino[2,1-a]isoquinolin Scaffold with Potent In Vitro Efficacy and Enhanced Physicochemical Properties” (Molecules : A Journal of Synthetic Chemistry and Natural …, 2017)",
  "key": {"[1]": {"experiment": "log D pH 7.4 by potentiometric titration (Gemini Profiler, pION)", "type": "physicochemical", "from_the_text": "(§1) Ketoprofen and propranolol were chosen as a control.\n(§2) This is a new potentiometric acid−base titration method."}, "[2]": {"experiment": "pKa by potentiometric titration (Gemini Profiler, pION)", "type": "physicochemical", "from_the_text": "as §1, §2"}, "Nrf2": {"tested_on": "Nrf2", "experiment": "Western blot of Nrf2 protein level in HCT116", "type": "cell-based, human", "conditions": "HCT116, 10 μM", "from_the_text": "(§3) Compound 3g was selected to evaluate its capacity to activate the expression of Nrf2-regulated NQO1 by measuring the protein levels in HCT116 via Western Blot. […] Those data further confirmed that 3g bearing pyrido[1,2-a]pyrazin scaffold could elevate both Nrf2 and downstream proteins of Nrf2 at the cellular level.\n(§4) Anti-NQO1 (sc-271116), anti-Nrf2 (BS1258) and Anti-β-actin (AP0060) antibodies were purchased from Santa Cruz Biotechnology (Santa Cruz, CA, USA) and Bioworlde (Bioworlde, Visalia, CA, USA), respectively. The isolation of cell fractions and Western blotting were performed as detailed previously. Briefly, the extracts were separated by SDS-PAGE and then electrotransferred to PVDF membranes (Perkin Elmer, Northwalk, CT, USA). Membranes were blocked with 1% BSA for 1 h followed by incubation with a primary antibody at 4 °C overnight. Then they were washed and treated with a DyLight 800 labeled secondary antibody at 37 °C for 2 h. The membranes were screened through the odyssey infrared imaging System (LI-COR, Lincoln, NE, USA)."}, "[3]": {"experiment": "Parallel artificial membrane permeability assay (PAMPA by pION)", "conditions": "pH 7.4", "procedure": "(§6) Then we evaluated the physicochemical properties of a selected series of our compounds. […] All of them were evaluated with pKa, partition coefficient (log D, pH 7.4), membrane permeability (Pe, pH 7.4) and water solubility. […] Permeability (Pe) was determined by a standard parallel artificial membrane permeability assay (PAMPA by pION).\n(§7) Permeability (Pe) was determined by a standard parallel artificial membrane permeability assay (PAMPA by pION)."}, "[4]": {"tested_on": "antioxidant response element (ARE)", "experiment": "ARE luciferase reporter assay in HepG2-ARE-C8 cells", "type": "cell-based", "conditions": "HepG2-ARE-C8, 12 h of treatment, mean ± SD n = 3; for fold induction at 0.1 µM / fold induction at 1 µM / fold induction at 5 µM / fold induction at 10 µM / fold induction at 50 µM / fold induction at 100 µM: read-out: ARE Inductivity in Luciferase Reporter Assay (induction fold)", "protocol": "(§5) All the derivatives were evaluated for their ability to induce ARE in HepG2-ARE-C8 cell (HepG2 cells stably transfected with a luciferase reporter) by ARE luciferase reporter assay, and they were compared to the lead compound 2. At the same time, cytotoxicity studies were performed by the MTT assay against the HCT116 cells. The results of cytotoxic activity in vitro were expressed as the IC50 [18]. Because those compounds were designed for chemoprevention, they should not be cytotoxic.\nHepG2-ARE-C8 cells (4 × 10^4 cells/well) were incubated overnight in 96-well plates, and then treated with different concentrations of test compounds. tBHQ was used as a positive control, DMSO was used as a negative control, and the luciferase cell culture lysis reagent was used as a blank. The medium was removed after 12 h treatment. Then, the cells were harvested in the luciferase cell culture lysis reagent together with 100 μL of cold PBS. Then, centrifuging the solution and 20 μL of the supernatant was used for determining the luciferase activity. The luciferase activity was measured by a Luminoskan Ascent (Thermo Scientific, Waltham, MA, USA). The data were obtained in triplicate and expressed as fold induction over the control. Induction fold = (RLUtest − RLUblank)/(RLUDMSOcontrol − RLUblank). RLU = relative light unit l."}, "[5]": {"experiment": "MTT cell viability (cytotoxicity) assay", "type": "cell-based", "conditions": "human, HCT116 cells", "protocol": "as §5\nCell viabilities were determined by using 3-[4,5-dimethylthiazol-2-yl]-2,5-diphenyltetrazolium bromide (MTT) assay. MTT was dissolved in (phosphate buffered solution) PBS to a concentration of 5 mg/mL. HCT116 cells (8 × 10^3 cells/well) were plated in 96-well plates and incubated overnight. Different concentrations of test compounds were added to each cell for 24 h at 37 °C, and the 20 μL MTT solution was added and incubated for an additional 4 h. Then, 100 μL of DMSO was added to dissolve formazan precipitate after the solution was removed. The OD value was determined at 570 nm by Elx800 absorbance microplate reader (BioTek, Winooski, VT, USA). IC50 value (concentration at which cell survival equals 50% of control) = […]."}, "NQO1": {"tested_on": "NQO1", "experiment": "Western blot of NQO1 protein level in HCT116", "type": "cell-based, human", "conditions": "tBHQ at 100 μM", "from_the_text": "as §3, §4"}, "[6]": {"experiment": "Water solubility by pH-metric method (pSOL model 3)", "type": "physicochemical", "conditions": "water, pH 7.4, aqueous buffer, thermodynamic from solid", "from_the_text": "as §2"}, "physchem": {"experiment": "physchem", "conditions": "PAMPA, pH 7.4", "procedure": "as §6, §7"}},
  "data": [
    {"smiles": "O=C(C=C1NCC2CCCCN2C1=O)c1ccco1", "note": "(stereo not drawn) [Compound 3g, 3-(2-(furan-2-yl)-2-oxoethylidene)octahydro-4H-pyrido[1,2-a]pyrazin-4-one]", "values": [
      {"measurement": "logD", "setting": "[1]", "value": -0.34},
      {"measurement": "pKa", "setting": "[2]", "value": 2.08},
      {"measurement": "melting point", "value": "152 to 154", "unit": "°C"},
      {"measurement": "Nrf2 protein level (Western blot)", "setting": "Nrf2", "value": "elevated the protein level of Nrf2"},
      {"measurement": "Papp", "setting": "[3]", "value": "32.7 ± 1.92", "unit": "×10⁻⁶ cm/s"},
      {"measurement": "fold induction at 0.1 µM", "setting": "[4]", "value": "0.24 ± 0.15"},
      {"measurement": "fold induction at 1 µM", "setting": "[4]", "value": "1.5 ± 0.01"},
      {"measurement": "fold induction at 5 µM", "setting": "[4]", "value": "6.41 ± 3.14"},
      {"measurement": "ARE Inductivity in Luciferase Reporter Assay (induction fold)", "setting": "[4]; 10 μM", "value": "27.01 ± 2.46", "unit": "fold"},
      {"measurement": "fold induction at 10 µM", "setting": "[4]; 10 μM", "value": 27},
      {"measurement": "fold induction at 50 µM", "setting": "[4]", "value": "41.6 ± 2.6"},
      {"measurement": "ARE Inductivity in Luciferase Reporter Assay (induction fold)", "setting": "[4]; 100 μM", "value": "79.74 ± 1.92", "unit": "fold"},
      {"measurement": "fold induction at 100 µM", "setting": "[4]; 100 μM", "value": 79.7},
      {"measurement": "IC50 at 24 h", "setting": "[5]", "value": "> 300", "unit": "µM"},
      {"measurement": "NQO1 protein level (Western blot)", "setting": "NQO1", "value": "induced by 3g in a concentration-dependent manner"},
      {"measurement": "solubility", "setting": "[6]", "value": 3310, "unit": "µg/mL"}
    ]},
    {"smiles": "O=C(C=C1NCC2CCCCN2C1=O)c1cccc(F)c1", "note": "(stereo not drawn) [Compound 3b, 3-(2-(3-fluorophenyl)-2-oxoethylidene)octahydro-4H-pyrido[1,2-a]pyrazin-4-one]", "values": [
      {"measurement": "logD", "setting": "[1]", "value": 1.23},
      {"measurement": "pKa", "setting": "[2]", "value": 3.1},
      {"measurement": "melting point", "value": "156 to 158", "unit": "°C"},
      {"measurement": "Papp", "setting": "[3]", "value": "54.5 ± 6", "unit": "×10⁻⁶ cm/s"},
      {"measurement": "fold induction at 0.1 µM", "setting": "[4]", "value": "0.7 ± 0.35"},
      {"measurement": "fold induction at 1 µM", "setting": "[4]", "value": "5.98 ± 2.31"},
      {"measurement": "fold induction at 5 µM", "setting": "[4]", "value": "24.8 ± 2.67"},
      {"measurement": "ARE Inductivity in Luciferase Reporter Assay (induction fold)", "setting": "[4]; 10 μM", "value": "32.97 ± 3.68", "unit": "fold"},
      {"measurement": "fold induction at 10 µM", "setting": "[4]; 10 μM", "value": 33},
      {"measurement": "fold induction at 50 µM", "setting": "[4]", "value": "40 ± 0.69"},
      {"measurement": "fold induction at 100 µM", "setting": "[4]; 100 μM", "value": "4.41 ± 2.89"},
      {"measurement": "IC50 at 24 h", "setting": "[5]", "value": 168, "unit": "µM"},
      {"measurement": "solubility", "setting": "[6]", "value": 290, "unit": "µg/mL"}
    ]},
    {"smiles": "O=C(C=C1NCC2c3ccccc3CCN2C1=O)c1cccc(NC(=O)N2CCOCC2)c1", "note": "(stereo not drawn) [Compound 1e, N-(3-(2-(4-oxo-1,6,7,11b-tetrahydro-2H-pyrazino[2,1-a]isoquinolin-3(4H)-ylidene)acetyl)phenyl)morpholine-4-carboxamide]", "values": [
      {"measurement": "logD", "setting": "[1]", "value": 0.61},
      {"measurement": "pKa", "setting": "[2]", "value": 2.9},
      {"measurement": "melting point", "value": "228 to 230", "unit": "°C"},
      {"measurement": "Papp", "setting": "[3]", "value": "53 ± 7.29", "unit": "×10⁻⁶ cm/s"},
      {"measurement": "fold induction at 0.1 µM", "setting": "[4]", "value": "1.57 ± 0.05"},
      {"measurement": "fold induction at 1 µM", "setting": "[4]", "value": "1.97 ± 0.2"},
      {"measurement": "fold induction at 5 µM", "setting": "[4]", "value": "4.53 ± 0.28"},
      {"measurement": "fold induction at 10 µM", "setting": "[4]; 10 μM", "value": "5.48 ± 0.13"},
      {"measurement": "fold induction at 50 µM", "setting": "[4]", "value": "7.8 ± 3.94"},
      {"measurement": "fold induction at 100 µM", "setting": "[4]; 100 μM", "value": "35 ± 3.15"},
      {"measurement": "IC50 at 24 h", "setting": "[5]", "value": 183, "unit": "µM"},
      {"measurement": "solubility", "setting": "[6]", "value": 46, "unit": "µg/mL"}
    ]},
    {"smiles": "O=C(C=C1NCC2CCCCN2C1=O)c1ccccc1", "note": "(stereo not drawn) [Compound 3a, 3-(2-oxo-2-phenylethylidene)octahydro-4H-pyrido[1,2-a]pyrazin-4-one]", "values": [
      {"measurement": "logD", "setting": "[1]", "value": 0.98},
      {"measurement": "pKa", "setting": "[2]", "value": 3.42},
      {"measurement": "melting point", "value": "164 to 166", "unit": "°C"},
      {"measurement": "Papp", "setting": "[3]", "value": "66.4 ± 5.08", "unit": "×10⁻⁶ cm/s"},
      {"measurement": "fold induction at 0.1 µM", "setting": "[4]", "value": "1.2 ± 0.49"},
      {"measurement": "fold induction at 1 µM", "setting": "[4]", "value": "4.09 ± 0.79"},
      {"measurement": "fold induction at 5 µM", "setting": "[4]", "value": "15.8 ± 2.08"},
      {"measurement": "fold induction at 10 µM", "setting": "[4]; 10 μM", "value": "16.4 ± 0.55"},
      {"measurement": "fold induction at 50 µM", "setting": "[4]", "value": "29.9 ± 8.49"},
      {"measurement": "fold induction at 100 µM", "setting": "[4]; 100 μM", "value": "40.6 ± 1.78"},
      {"measurement": "IC50 at 24 h", "setting": "[5]", "value": "> 300", "unit": "µM"},
      {"measurement": "solubility", "setting": "[6]", "value": 530, "unit": "µg/mL"}
    ]},
    {"smiles": "O=C(C=C1NCC2c3ccccc3CCN2C1=O)C1CCC1", "note": "(stereo not drawn) [Compound 2c, 3-(2-cyclobutyl-2-oxoethylidene)-1,2,3,6,7,11b-hexahydro-4H-pyrazino[2,1-a]isoquinolin-4-one]", "values": [
      {"measurement": "logD", "setting": "[1]", "value": 1.22},
      {"measurement": "pKa", "setting": "[2]", "value": 3.02},
      {"measurement": "melting point", "value": "172 to 174", "unit": "°C"},
      {"measurement": "Papp", "setting": "[3]", "value": "44 ± 5.42", "unit": "×10⁻⁶ cm/s"},
      {"measurement": "fold induction at 0.1 µM", "setting": "[4]", "value": "2.96 ± 0.48"},
      {"measurement": "fold induction at 1 µM", "setting": "[4]", "value": "3.04 ± 0.08"},
      {"measurement": "fold induction at 5 µM", "setting": "[4]", "value": "5.73 ± 1.44"},
      {"measurement": "fold induction at 10 µM", "setting": "[4]; 10 μM", "value": "13.3 ± 0.44"},
      {"measurement": "fold induction at 50 µM", "setting": "[4]", "value": "28 ± 1.39"},
      {"measurement": "fold induction at 100 µM", "setting": "[4]; 100 μM", "value": "29 ± 2.45"},
      {"measurement": "IC50 at 24 h", "setting": "[5]", "value": 190, "unit": "µM"},
      {"measurement": "solubility", "setting": "[6]", "value": 170, "unit": "µg/mL"}
    ]},
    {"smiles": "CC(C)NCC(O)COc1cccc2ccccc12", "note": "(stereo not drawn) [Propranolol]", "values": [
      {"measurement": "Papp", "setting": "physchem", "value": "64.7 ± 8.58", "unit": "×10⁻⁶ cm/s"}
    ]}
  ]
}
